Literature values in paper PMC7998273, “Zein Nanoparticles Improve the Oral Bioavailability of Curcumin in Wistar Rats” (Pharmaceutics, 2021).

Design: method as in PMID 17400527
Conditions: orally administered

Oral bioavailability: ca. 1%
Compound: COc1cc(/C=C/C(=O)CC(=O)/C=C/c2ccc(O)c(OC)c2)ccc1O [CC, curcumin]
